Measured values as given in ChEMBL document CHEMBL5244253, “Recent research progress on natural small molecule bibenzyls and its derivatives in Dendrobium species” (Eur J Med Chem, 2020).
Blank lines part the entries; values can stand above or below the compound they belong to.

Columns and labels:
NCI-H23 = experiment: Anti-cancer activity against human NCI-H23 cells; format: functional, cell-based
NCI-H460 [1] = experiment: Cytotoxicity against human NCI-H460 cells assessed as cell viability by MTT assay; format: functional, cell-based
PC-12 [2] = experiment: Neuroprotection against Amyloid beta (25 to 35)-induced toxicity in rat PC-12 cells assessed as increase in cell viability at 50 uM for 24 hrs by MTT assay relative to control; format: functional
PC-12 [3] = experiment: Neuroprotection against Amyloid beta (25 to 35)-induced toxicity in rat PC-12 cells assessed as increase in cell viability at 25 uM for 24 hrs by MTT assay relative to control; format: functional
PC-12 [4] = experiment: Neuroprotection against Amyloid beta (25 to 35)-induced toxicity in rat PC-12 cells assessed as increase in cell viability at 10 uM for 24 hrs by MTT assay relative to control; format: functional
[5] = Permeability of the compound by PAMPA-BBB assay; format: ADME; conditions: read-out: permeability
[6] = Antioxidant activity assessed as DPPH radical scavenging activity incubated for 30 mins by spectrophotometric analysis; format: functional
[7] = target: Aldo-keto reductase family 1 member B1 (Homo sapiens, UniProt P15121); experiment: Inhibition of aldose reductase (unknown origin) using DL-glyceraldehyde as substrate
K562 = experiment: Anti-cancer activity against human K562 cells; format: functional, cell-based
SGC-7901 = experiment: Anti-cancer activity against human SGC-7901 cells; format: functional, cell-based
Bel-7402 = experiment: Anti-cancer activity against human Bel-7402 cells; format: functional, cell-based
[8] = Antioxidant activity assessed as DPPH radical scavenging activity at 100 ug/ml incubated for 30 mins by spectrophotometric analysis; format: functional; conditions: dose 100.0 µg/ml
RAW264.7 = experiment: Antiinflammatory activity in mouse RAW264.7 cells assessed as inhibition of LPS-induced NO production at 25 uM measured after 24 hrs; format: functional
HL-60 = experiment: Anti-cancer activity against human HL-60 cells; format: functional, cell-based
MDA-MB-231 = experiment: Cytotoxicity against human MDA-MB-231 cells assessed as cell viability incubated for 72 hrs by MTT assay; format: functional, cell-based; conditions: MDA-MB-231, 72 h
HepG2 [9] = experiment: Cytotoxicity against human HepG2 cells assessed as cell viability incubated for 72 hrs by MTT assay; format: functional, cell-based; conditions: HepG2, 72 h
HT-29 = experiment: Cytotoxicity against human HT-29 cells assessed as cell viability incubated for 72 hrs by MTT assay; format: functional, cell-based; conditions: HT-29, 72 h
Alpha amylase = Alpha amylase (Homo sapiens, UniProt P0DUB6); experiment: Inhibition of alpha-amylase (unknown origin) by HPLC analysis
MCF7 [10] = experiment: Cytotoxicity against human MCF7 cells assessed as cell viability incubated for 48 hrs by MTS assay; format: functional, cell-based; conditions: MCF7, 48 h
THP-1 = experiment: Anti-cancer activity against human THP-1 cells; format: functional, cell-based
KB = experiment: Anti-cancer activity against human KB cells; format: functional, cell-based
HepG2 [11] = experiment: Anti-cancer activity against human HepG2 cells; format: functional, cell-based
MCF7 [12] = experiment: Anti-cancer activity against human MCF7 cells; format: functional, cell-based
NCI-H460 [13] = experiment: Anti-cancer activity against human NCI-H460 cells; format: functional, cell-based
NCI-H187 = experiment: Anti-cancer activity against human NCI-H187 cells; format: functional, cell-based
[14] = target: Tyrosine-protein phosphatase non-receptor type 1 (Homo sapiens, UniProt P18031); experiment: Inhibition of PTP1B (unknown origin)
[15] = target: Nitric oxide synthase, inducible (Homo sapiens, UniProt P35228); experiment: Inhibition of iNOS (unknown origin)
Nitric oxide synthase, inducible, sequence (P35228 whole entry): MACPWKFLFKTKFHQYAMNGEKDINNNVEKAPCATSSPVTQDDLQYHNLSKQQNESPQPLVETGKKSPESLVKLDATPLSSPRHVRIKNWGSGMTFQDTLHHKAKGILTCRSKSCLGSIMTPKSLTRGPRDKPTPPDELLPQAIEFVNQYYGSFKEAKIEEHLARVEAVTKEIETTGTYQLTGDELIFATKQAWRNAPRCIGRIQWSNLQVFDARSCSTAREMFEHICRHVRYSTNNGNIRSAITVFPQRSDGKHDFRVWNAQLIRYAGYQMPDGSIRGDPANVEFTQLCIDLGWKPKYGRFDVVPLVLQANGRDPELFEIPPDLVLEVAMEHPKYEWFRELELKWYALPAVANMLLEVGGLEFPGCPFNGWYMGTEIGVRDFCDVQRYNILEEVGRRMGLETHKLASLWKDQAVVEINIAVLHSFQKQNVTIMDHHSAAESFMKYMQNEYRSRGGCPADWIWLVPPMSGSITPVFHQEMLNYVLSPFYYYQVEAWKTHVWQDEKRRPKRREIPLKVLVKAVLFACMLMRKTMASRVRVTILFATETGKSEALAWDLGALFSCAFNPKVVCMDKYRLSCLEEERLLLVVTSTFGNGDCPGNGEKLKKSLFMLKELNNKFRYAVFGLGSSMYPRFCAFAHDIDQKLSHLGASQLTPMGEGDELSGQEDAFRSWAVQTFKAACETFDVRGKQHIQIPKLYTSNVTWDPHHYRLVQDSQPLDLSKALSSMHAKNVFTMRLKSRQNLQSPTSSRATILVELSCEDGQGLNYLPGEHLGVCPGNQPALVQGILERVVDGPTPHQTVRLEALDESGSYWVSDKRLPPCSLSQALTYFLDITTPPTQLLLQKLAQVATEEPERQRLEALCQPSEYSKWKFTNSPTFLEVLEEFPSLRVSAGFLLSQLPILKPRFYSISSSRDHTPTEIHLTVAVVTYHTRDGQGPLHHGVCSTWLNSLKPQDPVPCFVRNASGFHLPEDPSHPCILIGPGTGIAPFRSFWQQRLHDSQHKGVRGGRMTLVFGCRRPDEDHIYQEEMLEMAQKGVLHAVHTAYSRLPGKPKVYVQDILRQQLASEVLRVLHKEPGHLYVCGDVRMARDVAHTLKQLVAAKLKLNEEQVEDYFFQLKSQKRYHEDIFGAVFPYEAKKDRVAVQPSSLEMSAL

Tyrosine-protein phosphatase non-receptor type 1, sequence (P18031 whole entry): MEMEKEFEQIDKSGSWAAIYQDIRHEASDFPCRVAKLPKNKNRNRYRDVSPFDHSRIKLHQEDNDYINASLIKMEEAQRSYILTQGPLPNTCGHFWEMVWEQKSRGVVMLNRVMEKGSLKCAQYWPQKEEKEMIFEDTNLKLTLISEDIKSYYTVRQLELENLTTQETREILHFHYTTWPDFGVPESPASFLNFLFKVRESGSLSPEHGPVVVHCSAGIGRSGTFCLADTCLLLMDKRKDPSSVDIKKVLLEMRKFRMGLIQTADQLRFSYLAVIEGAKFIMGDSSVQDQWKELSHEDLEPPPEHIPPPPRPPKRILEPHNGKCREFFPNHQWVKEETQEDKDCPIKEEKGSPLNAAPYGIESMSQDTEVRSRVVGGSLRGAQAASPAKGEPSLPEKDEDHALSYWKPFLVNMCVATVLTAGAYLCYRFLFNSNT
Alpha amylase, sequence (P0DUB6 whole entry): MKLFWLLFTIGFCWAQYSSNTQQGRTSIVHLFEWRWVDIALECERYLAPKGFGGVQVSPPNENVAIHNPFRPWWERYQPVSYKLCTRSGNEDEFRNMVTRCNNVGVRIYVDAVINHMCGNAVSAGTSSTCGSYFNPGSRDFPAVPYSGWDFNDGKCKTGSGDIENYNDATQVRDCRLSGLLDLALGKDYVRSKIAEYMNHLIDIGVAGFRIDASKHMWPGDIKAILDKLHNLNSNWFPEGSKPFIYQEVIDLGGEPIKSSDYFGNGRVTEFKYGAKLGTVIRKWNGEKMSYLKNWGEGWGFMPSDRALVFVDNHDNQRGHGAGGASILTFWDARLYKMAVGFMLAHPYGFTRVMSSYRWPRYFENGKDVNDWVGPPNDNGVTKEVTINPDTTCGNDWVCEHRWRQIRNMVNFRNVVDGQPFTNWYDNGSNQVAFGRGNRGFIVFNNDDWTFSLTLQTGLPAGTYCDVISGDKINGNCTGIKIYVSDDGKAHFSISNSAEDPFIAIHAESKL

- IC50 (NCI-H23): 145 µM
- Papp [5]: 4.1 ×10⁻⁶ cm/s
- IC50 [6]: 14 µM
Structure (SMILES): COc1ccc(CCc2cc(OC)c(O)c(OC)c2)cc1OC
- IC50 (NCI-H460 [1]): 127 µM
- Activity (PC-12 [2]): 58.89%
- Activity (PC-12 [3]): 55.02%
- Activity (PC-12 [4]): 52.72%

- IC50 [7]: 534 µM
Structure (SMILES): Oc1ccc(CCc2ccc(O)c(O)c2)cc1O

- IC50 (K562): 15.7 µM
- IC50 (SGC-7901): 7.8 µM
- IC50 (Bel-7402): 11.7 µM
Structure (SMILES): COc1cc(CCc2cccc(O)c2)cc(O)c1OC

Structure (SMILES): CCCC(CCC)C(=O)Oc1c(OC)cc(CCc2ccc(OC)c(OC)c2)cc1OC
- Activity (PC-12 [2]): 60.02%
- Activity (PC-12 [3]): 55.21%
- Activity (PC-12 [4]): 50.11%

Structure (SMILES): CCCCC(=O)Oc1c(OC)cc(CCc2ccc(OC)c(OC)c2)cc1OC
- Activity (PC-12 [2]): 48.63%
- Activity (PC-12 [3]): 41.9%
- Activity (PC-12 [4]): 49.73%

- IC50 [6]: 34.2 µM
Structure (SMILES): COc1cc([C@H](Cc2ccc(O)cc2)OC)cc(O)c1O

Structure (SMILES): Oc1cc(O)cc(CCc2ccc3c(c2)OCO3)c1
- inhibition [8]: 88%
- inhibition at 25 µM (RAW264.7): 22.1%

Structure (SMILES): CCC(C)Oc1c(OC)cc(CCc2ccc(OC)c(OC)c2)cc1OC (configuration not stated)
- Activity (PC-12 [2]): 48.75%
- Activity (PC-12 [3]): 49.73%
- Activity (PC-12 [4]): 49.02%

Structure (SMILES): CCCOc1c(OC)cc(CCc2ccc(OC)c(OC)c2)cc1OC
- Activity (PC-12 [2]): 48.81%
- Activity (PC-12 [3]): 49.11%
- Activity (PC-12 [4]): 49.21%

Structure (SMILES): CCCC(=O)Oc1c(OC)cc(CCc2ccc(OC)c(OC)c2)cc1OC
- Activity (PC-12 [2]): 49.37%
- Activity (PC-12 [3]): 50.12%
- Activity (PC-12 [4]): 54.89%

Structure (SMILES): COc1ccc(CCc2cc(OC)c(OCC(C)C)c(OC)c2)cc1OC
- Activity (PC-12 [2]): 49.89%
- Activity (PC-12 [3]): 50.12%
- Activity (PC-12 [4]): 54.53%

- IC50 [7]: 566 µM
Structure (SMILES): Oc1cc(O)cc(CCc2ccc(F)cc2)c1

- IC50 [6]: 40.3 µM
Structure (SMILES): COc1cccc(CCc2cc(O)c(O)c(OC)c2)c1

- IC50 [7]: 513 µM
Structure (SMILES): CC(C)c1ccc(CCc2cc(O)cc(O)c2)cc1

- IC50 [6]: 32.4 µM
Structure (SMILES): COc1ccc(CCc2cc(OC)c(O)c3c2C(Cc2ccc(O)cc2)c2cc(O)c(O)c(OC)c2O3)cc1 (configuration not stated)

- Papp [5]: 6.9 ×10⁻⁶ cm/s
Structure (SMILES): COc1ccc(CCc2cc(OC)c(OC(=O)c3ccccc3)c(OC)c2)cc1OC
- Activity (PC-12 [2]): 100.78%
- Activity (PC-12 [3]): 80.12%
- Activity (PC-12 [4]): 58.18%

Structure (SMILES): COc1ccc(CCc2cc(OC)c(OC(=O)CCC(C)C)c(OC)c2)cc1OC
- Activity (PC-12 [2]): 49.57%
- Activity (PC-12 [3]): 50.4%
- Activity (PC-12 [4]): 49.83%

- IC50 (HL-60): 10.7 µM
- IC50 (Alpha amylase): 5990 µM
Structure (SMILES): COc1ccc(CCc2cc(O)c(O)c(OC)c2)cc1
- IC50 (MDA-MB-231): 80.5 µM
- IC50 (HepG2 [9]): 138 µM
- IC50 (HT-29): 88.2 µM

Structure (SMILES): COc1ccc(CCc2cc3c(c(OC)c2)C[C@@H](CO)[C@H](c2ccc(O)c(OC)c2)C3)cc1
- IC50 (MCF7 [10]): 38.5 µM

- IC50 (NCI-H23): 252 µM
Structure (SMILES): COc1ccc(CCc2cc(OC)c(OC)c(OC)c2)cc1OC

- IC50 (HL-60): 10.6 µM
- IC50 (THP-1): 23.3 µM
- IC50 (K562): 63.9 µM
- IC50 (SGC-7901): 17.4 µM
- IC50 (KB): 61.9 µM
- IC50 (Bel-7402): 13 µM
- IC50 (HepG2 [11]): 9.3 µM
- IC50 (MCF7 [12]): 67.8 µM
- IC50 (NCI-H460 [13]): 76.9 µM
- IC50 (NCI-H187): 235 µM
- IC50 [14]: 73.3 µM
- IC50 [6]: 17.7 µM
Structure (SMILES): COc1cc(O)cc(CCc2ccc(O)c(OC)c2)c1 [GIGANTOL]

- IC50 [6]: 21.3 µM
Structure (SMILES): COc1ccc(CCc2cc(OC)c3c(c2)O[C@H](c2cc(O)c(O)c(OC)c2)[C@@H](c2ccc(OC)cc2)O3)cc1
- IC50 (MDA-MB-231): 42.5 µM
- IC50 (HepG2 [9]): 89.7 µM
- IC50 (HT-29): 52 µM

Structure (SMILES): COc1cc(C[C@H](O)c2cc(O)cc(O)c2)ccc1O
- inhibition at 25 µM (RAW264.7): 15%

- IC50 [6]: 34.5 µM
Structure (SMILES): CCO[C@@H](Cc1ccc(O)cc1)c1cc(O)c(O)c(OC)c1

- IC50 (HL-60): 29.1 µM
- IC50 (THP-1): 13.5 µM
- IC50 [14]: 21.2 µM
Structure (SMILES): COc1cc(CCc2cc(O)cc(O)c2)ccc1O [TRISTIN]
- inhibition at 25 µM (RAW264.7): 27.2%

- IC50 [6]: 19.8 µM
Structure (SMILES): COc1ccc(CC2C3=C(Cc4c2cc(O)c(O)c4OC)C(=O)c2cc(O)c4cc(O)ccc4c2C3=O)cc1 (configuration not stated)

Structure (SMILES): COc1ccc(CCc2cc(OC)c(OC(=O)c3ccccn3)c(OC)c2)cc1OC
- Activity (PC-12 [2]): 54.6%
- Activity (PC-12 [3]): 50.1%
- Activity (PC-12 [4]): 52.97%

Structure (SMILES): CCCCC(CC)Oc1c(OC)cc(CCc2ccc(OC)c(OC)c2)cc1OC (configuration not stated)
- Activity (PC-12 [2]): 58.88%
- Activity (PC-12 [3]): 54.78%
- Activity (PC-12 [4]): 51.03%

Structure (SMILES): CCOc1c(OC)cc(CCc2ccc(OC)c(OC)c2)cc1OC
- Activity (PC-12 [2]): 46.15%
- Activity (PC-12 [3]): 50.92%
- Activity (PC-12 [4]): 53.84%

Structure (SMILES): COc1ccc(CCc2cc(OC)c(OCCC(C)C)c(OC)c2)cc1OC
- Activity (PC-12 [2]): 49.48%
- Activity (PC-12 [3]): 50.16%
- Activity (PC-12 [4]): 50.21%

- IC50 [7]: 176 µM
- IC50 [15]: 680 µM
Structure (SMILES): COc1cc(O)cc(CCc2ccc(O)c(O)c2)c1
